In patent publication US20110263507A1 (priority 2007, published 2011):
Where “and” joins values, the source holds several entries; their conditions need not be identical. Identical values can stand only once. Like-named read-outs stand apart in the source and are kept apart here. Each block holds one compound with its values, some of them ahead of it. Where a SMILES comes first, the peptide text is derived from it. [ ]: non-standard residue; d: D form. dOrn = NCCC[C@@H](N)C(=O)O; Orn = NCCC[C@H](N)C(=O)O; Dab = NCC[C@H](N)C(=O)O

Tests used:
hNTS2 = molecular target: T1, hNTS2 (Homo sapiens, UniProt O95665); assay: Radioligand competition binding with [3H]NT, membranes of CHO-K1 cells expressing hNTS2; conditions: for hNTS2 Selectivity: hNTS2 over hNTS1; for higher affinity at hNTS2 than the corresponding JMV peptide at mNTS2: NT33 vs JMV 510, NT51 vs JMV 509
T1 construct: expressed in transfected cells; host or cells: CHO-K1
T1 sequence (O95665 whole entry): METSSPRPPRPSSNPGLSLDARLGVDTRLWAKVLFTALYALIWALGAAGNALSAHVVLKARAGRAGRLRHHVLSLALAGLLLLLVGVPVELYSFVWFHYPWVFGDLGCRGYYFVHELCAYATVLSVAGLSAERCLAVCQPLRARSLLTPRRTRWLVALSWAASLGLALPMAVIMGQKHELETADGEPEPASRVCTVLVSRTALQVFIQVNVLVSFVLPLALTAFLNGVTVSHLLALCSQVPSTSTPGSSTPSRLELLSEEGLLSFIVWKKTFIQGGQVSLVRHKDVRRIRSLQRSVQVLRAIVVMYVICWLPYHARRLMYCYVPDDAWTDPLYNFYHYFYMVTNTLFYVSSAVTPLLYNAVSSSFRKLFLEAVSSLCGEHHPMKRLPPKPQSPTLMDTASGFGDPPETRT

hNTS1 = molecular target: T2, hNTS1 (Homo sapiens, UniProt P30989); assay: Radioligand competition binding with [3H]NT, membranes of CHO-K1 cells expressing hNTS1; conditions: for hNTS1 Selectivity: Table 2, hNTS1 over hNTS2
T2 construct: expressed in transfected cells; host or cells: CHO-K1
T2 sequence (P30989 whole entry): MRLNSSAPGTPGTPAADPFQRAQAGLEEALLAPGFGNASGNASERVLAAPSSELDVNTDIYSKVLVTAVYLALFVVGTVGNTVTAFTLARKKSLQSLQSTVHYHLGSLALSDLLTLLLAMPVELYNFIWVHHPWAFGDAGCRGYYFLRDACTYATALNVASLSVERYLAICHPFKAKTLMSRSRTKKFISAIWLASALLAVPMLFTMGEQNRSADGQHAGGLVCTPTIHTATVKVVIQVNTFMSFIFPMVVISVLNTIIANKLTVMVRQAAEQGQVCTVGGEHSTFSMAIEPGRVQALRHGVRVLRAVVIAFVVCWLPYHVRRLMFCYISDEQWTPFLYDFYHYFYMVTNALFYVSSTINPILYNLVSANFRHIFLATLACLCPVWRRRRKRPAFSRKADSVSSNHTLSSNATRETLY
Experimental: CHO-K1 cells that had been stably transfected separately with the hNTS1 or hNTS2 genes were cultured in 150 mm (500 cm^2) Petri plates with 35 ml of Dulbecco's modified Eagle's medium containing 100 μM minimal essential medium nonessential amino acids (Life Technologies, Inc.) supplemented with 5% (v/v) FetalClone II bovine serum product (Hyclone Labs, Logan, Utah). […] The cellular pellet (in Tris-HCl buffer) was stored at […] until the radioligand binding was performed.
For use in binding assays, crude membrane preparations were prepared by centrifugation of the cellular pellet at 35,600×g for 10 min. The supernatant was decanted and discarded, and the cellular pellet was resuspended in 1 ml of Tris-HCl buffer followed by homogenization with a Brinkmann Polytron at setting 5.5 for 15 s. Centrifugation was repeated as above, the supernatant was decanted and discarded, and the cellular pellet was resuspended in 1 ml of Tris-HCl buffer followed by homogenization. Centrifugation was repeated a third time, the supernatant was discarded, and the final cellular pellet was suspended in 0.5-2.5 ml of Tris-HCl buffer. Protein concentration of the membrane preparation was estimated by the method of Lowry et al. using bovine serum albumin as a standard.
Incubation was at 20° C. for 40 min. The assay was routinely terminated by addition of ice-cold 0.9% NaCl (5×1.5 ml), followed by rapid filtration through a GF/B filter strip that had been pretreated with 0.2% or 2% polyethyleneimine. Details of binding assays have been described previously. […] Data were analyzed using the LIGAND program.

[1] = Table 2, read-out: hNTS2 Geometric Mean ∀ SEM (equilibrium dissociation constant Kd)
[2] = read-out: hNTS1 Geometric Mean ∀ SEM (equilibrium dissociation constant Kd)

SMILES: CC[C@H](C)[C@H](NC(=O)[C@H](Cc1ccc(O)cc1)NC(=O)[C@@H]1CCCN1C(=O)[C@H](CCCNC(=N)N)NC(=O)[C@H](N)CCCCN)C(=O)N[C@@H](CC(C)C)C(=O)O [NT02, [D-Lys^8]NT(8-13)] (H-[dK]RPYIL-OH; N-terminus and C-terminus assumed)
hNTS2 Selectivity (hNTS2; Table 2): 0.2 | Kd (hNTS2; [1]): 4.6 ± 0.5 nM | hNTS1 Selectivity (hNTS1): 4.6

SMILES: CC[C@H](C)[C@H](NC(=O)[C@H](Cc1ccc(O)cc1)NC(=O)[C@@H]1CCCN1C(=O)[C@@H](CCCCN)NC(=O)[C@@H](N)CCCNC(=N)N)C(=O)N[C@@H](CC(C)C)C(=O)O [NT03, [D-Lys^9]NT(8-13)] (H-R[dK]PYIL-OH; N-terminus and C-terminus assumed)
Kd (hNTS2): 280 ± 30 nM | hNTS2 Selectivity (hNTS2; Table 2): 2.5 | Kd (hNTS1): 690 ± 30 nM | hNTS1 Selectivity (hNTS1): 0.4

SMILES: CC[C@H](C)[C@H](NC(=O)[C@H](Cc1ccc(O)cc1)NC(=O)[C@@H]1CCCN1C(=O)[C@H](CCCCN)NC(=O)[C@H](N)CCCNC(=N)N)C(=O)N[C@@H](CC(C)C)C(=O)O [NT15, [D-Arg^8,L-Lys^9]NT(8-13)] (H-[dR]KPYIL-OH; N-terminus and C-terminus assumed)
Kd (hNTS2): 18 ± 2 nM | hNTS2 Selectivity (hNTS2; Table 2): 0.2 | Kd (hNTS1): 3.5 ± 0.5 nM | hNTS1 Selectivity (hNTS1): 4.0

SMILES: CC[C@H](C)[C@H](NC(=O)[C@H](Cc1ccc(O)cc1)NC(=O)[C@@H]1CCCN1C(=O)[C@@H](CCCNC(=N)N)NC(=O)[C@@H](N)CCCCN)C(=O)N[C@@H](CC(C)C)C(=O)O [NT16, [L-Lys^8,D-Arg^9]NT(8-13)] (H-K[dR]PYIL-OH; N-terminus and C-terminus assumed)
hNTS2 Selectivity (hNTS2; Table 2): 0.8 | Kd (hNTS2; [1]): 39.6 ± 0.6 nM | hNTS1 Selectivity (hNTS1): 1.2 | Kd (hNTS1; [2]): 33 ± 6 nM

SMILES: CC[C@H](C)[C@H](NC(=O)[C@H](Cc1ccc(O)cc1)NC(=O)[C@@H]1CCCN1C(=O)[C@H](CCCCN)NC(=O)[C@@H](N)CCCCN)C(=O)N[C@@H](CC(C)C)C(=O)O [NT19, [L-Lys^8,L-Lys^9]NT(8-13)]
Kd (hNTS2): 2.4 ± 0.3 nM

SMILES: CC[C@H](C)[C@H](NC(=O)[C@H](Cc1ccc(O)cc1)NC(=O)[C@@H]1CCCN1C(=O)[C@@H](CCCCN)NC(=O)[C@H](N)CCCCN)C(=O)N[C@@H](CC(C)C)C(=O)O [NT20, [D-Lys^8,D-Lys^9]NT(8-13)]
Kd (hNTS2): 730 ± 60 nM

SMILES: CC[C@H](C)[C@H](NC(=O)[C@H](Cc1ccc(O)cc1)NC(=O)[C@@H]1CCCN1C(=O)[C@H](CCCNC(=N)N)NC(=O)[C@@H](N)CCCN)C(=O)N[C@@H](CC(C)C)C(=O)O [NT21, [L-Orn^8]NT(8-13)] (H-[Orn]RPYIL-OH; N-terminus and C-terminus assumed)
hNTS2 Selectivity (hNTS2; Table 2): 0.2 | Kd (hNTS2; [1]): 2.2 ± 0.1 nM | hNTS1 Selectivity (hNTS1): 5.2 | Kd (hNTS1; [2]): 0.41 ± 0.03 nM

SMILES: CC[C@H](C)[C@H](NC(=O)[C@H](Cc1ccc(O)cc1)NC(=O)[C@@H]1CCCN1C(=O)[C@H](CCCNC(=N)N)NC(=O)[C@H](N)CCCN)C(=O)N[C@@H](CC(C)C)C(=O)O [NT22, [D-Orn^8]NT(8-13)] (H-[dOrn]RPYIL-OH; N-terminus and C-terminus assumed)
hNTS2 Selectivity (hNTS2; Table 2): 0.3 | Kd (hNTS2; [1]): 5.9 ± 0.2 nM | hNTS1 Selectivity (hNTS1): 3.2 | Kd (hNTS1; [2]): 1.9 ± 0.2 nM

SMILES: CC[C@H](C)[C@H](NC(=O)[C@H](Cc1ccc(O)cc1)NC(=O)[C@@H]1CCCN1C(=O)[C@H](CCCN)NC(=O)[C@@H](N)CCCNC(=N)N)C(=O)N[C@@H](CC(C)C)C(=O)O [NT23, [L-Orn^9]NT(8-13)] (H-R[Orn]PYIL-OH; N-terminus and C-terminus assumed)
hNTS2 Selectivity (hNTS2; Table 2): 0.6 | Kd (hNTS2; [1]): 1.5 ± 0.1 nM | hNTS1 Selectivity (hNTS1): 1.6 | Kd (hNTS1; [2]): 0.94 ± 0.06 nM

SMILES: CC[C@H](C)[C@H](NC(=O)[C@H](Cc1ccc(O)cc1)NC(=O)[C@@H]1CCCN1C(=O)[C@@H](CCCN)NC(=O)[C@@H](N)CCCNC(=N)N)C(=O)N[C@@H](CC(C)C)C(=O)O [NT24, [D-Orn^9]NT(8-13)] (H-R[dOrn]PYIL-OH; N-terminus and C-terminus assumed)
hNTS2 Selectivity (hNTS2; Table 2): 0.2 | Kd (hNTS2; [1]): 790 ± 20 nM | hNTS1 Selectivity (hNTS1): 6.6 | Kd (hNTS1; [2]): 120 ± 10 nM

SMILES: CC[C@H](C)[C@H](NC(=O)[C@H](Cc1ccc(O)cc1)NC(=O)[C@@H]1CCCN1C(=O)[C@H](CCCN)NC(=O)[C@@H](N)CCCN)C(=O)N[C@@H](CC(C)C)C(=O)O [NT25, [L-Orn^8,L-Orn^9]NT(8-13)]
hNTS2 Selectivity (hNTS2; Table 2): 0.8 | Kd (hNTS2; [1]): 3.9 ± 0.2 nM | hNTS1 Selectivity (hNTS1): 1.3 | Kd (hNTS1; [2]): 3 ± 0.3 nM

SMILES: CC[C@H](C)[C@H](NC(=O)[C@H](Cc1ccc(O)cc1)NC(=O)[C@@H]1CCCN1C(=O)[C@@H](CCCN)NC(=O)[C@@H](N)CCCN)C(=O)N[C@@H](CC(C)C)C(=O)O [NT26, [L-Orn^8,D-Orn^9]NT(8-13)]
hNTS2 Selectivity (hNTS2; Table 2): 0.3 | Kd (hNTS2; [1]): 1082 ± 6 nM | hNTS1 Selectivity (hNTS1): 3.0 | Kd (hNTS1; [2]): 360 ± 40 nM

SMILES: CC[C@H](C)[C@H](NC(=O)[C@H](Cc1ccc(O)cc1)NC(=O)[C@@H]1CCCN1C(=O)[C@H](CCCN)NC(=O)[C@H](N)CCCN)C(=O)N[C@@H](CC(C)C)C(=O)O [NT27, [D-Orn^8,L-Orn^9]NT(8-13)]
hNTS2 Selectivity (hNTS2; Table 2): 0.2 | Kd (hNTS2; [1]): 24 ± 2 nM | hNTS1 Selectivity (hNTS1): 6.6 | Kd (hNTS1; [2]): 3.6 ± 0.2 nM

SMILES: CC[C@H](C)[C@H](NC(=O)[C@H](Cc1ccc(O)cc1)NC(=O)[C@@H]1CCCN1C(=O)[C@@H](CCCN)NC(=O)[C@H](N)CCCN)C(=O)N[C@@H](CC(C)C)C(=O)O [NT28, [D-Orn^8,D-Orn^9]NT(8-13)]
hNTS2 Selectivity (hNTS2; Table 2): 0.3 | Kd (hNTS2; [1]): 1900 ± 100 nM | hNTS1 Selectivity (hNTS1): 3.2 | Kd (hNTS1; [2]): 600 ± 20 nM

Further lines, results first:

hNTS2 Selectivity (hNTS2; Table 2): 0.2 | Kd (hNTS2; [1]): 6.5 ± 0.3 nM | hNTS1 Selectivity (hNTS1): 5.6 | Kd (hNTS1; [2]): 1.2 ± 0.1 nM
SMILES: CC[C@H](C)[C@H](NC(=O)[C@H](Cc1ccc(O)cc1)NC(=O)[C@@H]1CCCN1C(=O)[C@H](CCCNC(=N)N)NC(=O)[C@@H](N)CCN)C(=O)N[C@@H](CC(C)C)C(=O)O [NT29, [DAB^8]NT(8-13)] (H-[Dab]RPYIL-OH; N-terminus and C-terminus assumed)

hNTS2 Selectivity (hNTS2; Table 2): 0.1 | Kd (hNTS2; [1]): 19.5 ± 0.7 nM | hNTS1 Selectivity (hNTS1): 9.1 | Kd (hNTS1; [2]): 2.1 ± 0.3 nM
SMILES: CC[C@H](C)[C@H](NC(=O)[C@H](Cc1ccc(O)cc1)NC(=O)[C@@H]1CCCN1C(=O)[C@H](CCN)NC(=O)[C@@H](N)CCN)C(=O)N[C@@H](CC(C)C)C(=O)O [NT31, [DAB^8,DAB^9]NT(8-13)] (H-[Dab][Dab]PYIL-OH; N-terminus and C-terminus assumed)

higher affinity at hNTS2 than the corresponding JMV peptide at mNTS2 (hNTS2): 12 fold | Kd (hNTS2; [1]): 18 ± 1 nM
SMILES: CC[C@H](C)[C@H](NC(=O)[C@H](Cc1ccc2ccccc2c1)NC(=O)[C@@H]1CCCN1C(=O)[C@H](CCCNC(=N)N)NC(=O)[C@@H](N)CCCNC(=N)N)C(=O)N[C@@H](CC(C)C)C(=O)O [NT33, [L-3,2-Nal^11]NT(8-13)]

Kd (hNTS2; [1]): 14 nM
SMILES: CC[C@H](C)[C@H](NC(=O)[C@@H]1Cc2ccccc2CN1C(=O)[C@@H]1CCCN1C(=O)[C@H](CCCNC(=N)N)NC(=O)[C@@H](N)CCCNC(=N)N)C(=O)N[C@@H](CC(C)C)C(=O)O [NT47, [L-TIC^11]NT(8-13)]

Kd (hNTS2; [1]): 255 nM
SMILES: CC[C@H](C)[C@H](NC(=O)[C@H]1Cc2ccccc2CN1C(=O)[C@@H]1CCCN1C(=O)[C@H](CCCNC(=N)N)NC(=O)[C@@H](N)CCCNC(=N)N)C(=O)N[C@@H](CC(C)C)C(=O)O [NT48, [D-TIC^11]NT(8-13)]

Kd (hNTS2; [1]): 1.28 ± 0.05 nM
SMILES: CC[C@H](C)[C@H](NC(=O)[C@H](Cc1cccc2ccccc12)NC(=O)[C@@H]1CCCN1C(=O)[C@H](CCCNC(=N)N)NC(=O)[C@@H](N)CCCNC(=N)N)C(=O)N[C@@H](CC(C)C)C(=O)O [NT49, [L-3,1-Nal^11]NT(8-13)]

decrease in affinity at NTS2 on changing from L- to D-3,2-Nal (hNTS2; NT33 compared to NT51): < 2 fold | higher affinity at hNTS2 than the corresponding JMV peptide at mNTS2 (hNTS2): 28 fold and ~30 fold | Kd (hNTS2; text, read-out: Kd at hNTS2): 32.9 nM
SMILES: CC[C@H](C)[C@H](NC(=O)[C@@H](Cc1ccc2ccccc2c1)NC(=O)[C@@H]1CCCN1C(=O)[C@H](CCCNC(=N)N)NC(=O)[C@@H](N)CCCNC(=N)N)C(=O)N[C@@H](CC(C)C)C(=O)O [NT51, [D-3,2-Nal^11]NT(8-13)]
